Measurements: ChEMBL document CHEMBL4689842, “EUbOPEN Chemogenomics Library wave 1” (2021)

Experiments:
Type in all cases: toxicity, cell-based
HEK-293T = experiment: Incucyte cell viability with HEK293T; settings: human, 10 µM, compound concentration 10 uM
Fibroblast = experiment: Incucyte cell viability with human fibroblast; settings: 10 µM, compound concentration 10 uM
U2OS = experiment: Incucyte cell viability with U2OS; settings: human, 10 µM, compound concentration 10 uM
[1] = 0 h, replicate number 2, timepoint 0 hours
[2] = 6 h, replicate number 1, timepoint 6 hours
[3] = 6 h, replicate number 2, timepoint 6 hours
[4] = 12 h, replicate number 1, timepoint 12 hours
[5] = 18 h, replicate number 1, timepoint 18 hours
[6] = 24 h, replicate number 1, timepoint 24 hours
[7] = 0 h, replicate number 1, timepoint 0 hours
Further: filed as whole numbers so only -1 and 0 and 1 occur.

## COc1ccc(CCc2nc3cc(-c4c(C)noc4C)ccc3n2C[C@H](C)N2CCOCC2)cc1Cl
HEK-293T; [1]
  Growth Rate: 1
HEK-293T; [2]
  Growth Rate: 0
HEK-293T; [3]
  Growth Rate: 1
HEK-293T; [4]
  Growth Rate: 1
HEK-293T; 12 h, replicate number 2, timepoint 12 hours
  Growth Rate: 0
HEK-293T; [5]
  Growth Rate: 0
HEK-293T; 18 h, replicate number 2, timepoint 18 hours
  Growth Rate: 1
HEK-293T; [6]
  Growth Rate: 0
Fibroblast; [7]
  Growth Rate: 0
Fibroblast; [2]
  Growth Rate: 1
Fibroblast; [3]
  Growth Rate: 0
Fibroblast; [4]
  Growth Rate: 1
Fibroblast; [5]
  Growth Rate: 1
Fibroblast; [6]
  Growth Rate: 1
U2OS; [7]
  Growth Rate: 1
U2OS; [1]
  Growth Rate: 0
U2OS; [2]
  Growth Rate: 0
U2OS; [4]
  Growth Rate: 1
U2OS; [5]
  Growth Rate: 1
U2OS; [6]
  Growth Rate: 1
